From patent US20210330606A1, “GLUCOSE CONSUMPTION ACCELERATOR AND GLYCOLYSIS ACCELERATOR” (SHINKO SANGYO Co., Ltd., priority 2018, published 2021)

Test system: Rat-derived fibroblasts (Py-3Y1-S2, subculture strain)
Assay: Glucose consumption of rat-derived fibroblasts (relative value, control = 100)
Assay type: cell-based
From the text: As drugs, 2-amino-1-cyclohexylethanol (Matrix Biochemicals), 2-aminoethanol (Tokyo Chemical Industry Co., Ltd.), 1-amino-2-propanol (Wako Pure Chemical Industries, Ltd.), 2-amino-1-phenylethanol (Tokyo Chemical Industry Co., Ltd.), 1, 3-bis[tris(hydroxymethyl)-methylamino]propane (Tokyo Chemical Industry Co., Ltd.), N-cyclohexylethanolamine (Tokyo Chemical Industry Co., Ltd.), diethanolamine (Wako Pure Chemical Industries, Ltd.), diethylamine (Wako Pure Chemical Industries, Ltd.), dipropylamine (Tokyo Chemical Industry Co., Ltd.), HEPES sodium salt (MP Biomedicals), metoprolol tartrate (Tokyo Chemical Industry Co., Ltd.), morpholine (Wako Pure Chemical Co., Ltd.), octopamine (MP Biomedicals), propylamine (Tokyo Chemical Industry Co., Ltd.), triethylamine (Wako Pure Chemical Co., Ltd.), timolol maleate (Wako Pure Chemical Industries, Ltd.) and tris(hydroxymethyl)aminomethane (Wako Pure Chemical Industries, Ltd.) were used. Each drug was dissolved in distilled water to prepare a sample.
In the culture, DMEM (Nissui Pharmaceutical Co., Ltd.) was used as a culture medium. […] As a control of the drug, the culture was performed in the same manner except that distilled water to which the drug was not added was added to the culture solution instead of the sample.
After the addition of the drug, the glucose concentration of each of the culture solutions was measured immediately after the start of the culture and after the completion of the culture. The glucose concentration was measured using a glucose assay kit (Waco). Then, the glucose concentration after the completion of the culture was divided by the glucose concentration immediately after the start of the culture (5.6 mmol per liter) to calculate the glucose consumption.
The fibroblasts were cultured. […] Streptozotocin, alloxan, and nicotinamide are drugs all known to produce symptoms of diabetes when administered to the body.
Next, samples of streptozotocin, alloxan, and nicotinamide plus 2-amino-1-phenylethanol (2-A-1-P) were prepared in the same manner. The concentration of 2-A-1-P was 1 mg/ml. The relative value of the glucose consumption was calculated in the same manner.
The fibroblasts were cultured.
The concentration of 2-A-1-P was 0.5 mg/ml. The relative value of the glucose consumption was calculated in the same manner.

## NCC(O)c1ccccc1 (centres unmarked) [2-amino-1-phenylethanol]
Example 2, fibroblasts, drug 0.1 mg/ml, control = 100
  relative value of glucose consumption: about 130
Example 2, fibroblasts, drug 0.25 mg/ml, control = 100
  relative value of glucose consumption: about 140
Example 2, fibroblasts, drug 0.5 mg/ml, control = 100
  relative value of glucose consumption: about 160
Example 3, 2-A-1-P 1 mg/ml in addition to alloxan 1 mg/ml
  relative value of glucose consumption: ≥ 100
Example 3, 2-A-1-P 1 mg/ml in addition to nicotinamide 1 mg/ml
  relative value of glucose consumption: ≥ 100
Example 3, 2-A-1-P 1 mg/ml in addition to streptozotocin 1 mg/ml
  relative value of glucose consumption: ≥ 100
Example 4, 2-A-1-P 0.5 mg/ml in addition to V2O5
  relative value of glucose consumption: about 140
Example 4, 2-A-1-P 0.5 mg/ml in addition to concanavalin A 100 μg/ml
  relative value of glucose consumption: about 150
Example 4, 2-A-1-P 0.5 mg/ml in addition to vanadium
  relative value of glucose consumption: about 145
fibroblasts, drug 0.5 mg/ml, 12 to 24 hours, control = 100 (FIG. 1A, 2A)
  relative value of glucose consumption: significantly increased glucose consumption
fibroblasts, drug 1 mg/ml, 12 to 24 hours, control = 100 (FIG. 1B, 2B)
  relative value of glucose consumption: significantly increased glucose consumption
